Results on one compound are retold here after paper PMC6934184, “Selective DNA-PKcs inhibition extends the therapeutic index of localized radiotherapy and chemotherapy” (The Journal of Clinical Investigation, 2019).

The experiment deals with T1, DAPK2 (Homo sapiens, UniProt Q9UIK4).
T1 construct: purchased Thermo Fisher Scientific (Life Technologies) SelectScreen
The experiment is described as follows: SelectScreen LanthaScreen. The format is binding. Particulars: read-out: % displacement. An outline of the steps:
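NU5455 was profiled across the SelectScreen Broad panel of kinase activity and binding assays. Z'LYTE reactions such as CSF1R ran at apparent Km ATP, while the Adapta CAMK1 assay used ATP listed as 10. Values are given as percent.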

T1 sequence (Q9UIK4 whole entry): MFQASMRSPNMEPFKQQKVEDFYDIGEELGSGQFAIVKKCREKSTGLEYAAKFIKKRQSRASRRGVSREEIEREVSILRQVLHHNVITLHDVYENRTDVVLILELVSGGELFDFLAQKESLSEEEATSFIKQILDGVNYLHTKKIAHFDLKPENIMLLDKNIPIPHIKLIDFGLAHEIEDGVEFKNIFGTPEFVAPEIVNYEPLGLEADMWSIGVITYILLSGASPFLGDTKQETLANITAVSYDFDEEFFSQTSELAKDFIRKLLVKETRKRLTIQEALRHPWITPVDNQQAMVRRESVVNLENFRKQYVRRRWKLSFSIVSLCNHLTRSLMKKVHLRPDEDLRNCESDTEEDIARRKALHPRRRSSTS

On to `CN(C(=O)CN1CCOCC1)c1ccc2sc3c(-c4cccc5c(=O)cc(N6CC7CCC(C6)O7)oc45)cccc3c2c1` [NU5455], for which the inhibition at 1 µM turned out to be 2.9%.
